This test concerns the target T1, Myoferlin (MYOF) (Homo sapiens, UniProt Q9NZM1).
T1 construct: C2D domain of MYOF (MYOF-C2D)
T1 sequence (Q9NZM1 1123-1251 limits assumed): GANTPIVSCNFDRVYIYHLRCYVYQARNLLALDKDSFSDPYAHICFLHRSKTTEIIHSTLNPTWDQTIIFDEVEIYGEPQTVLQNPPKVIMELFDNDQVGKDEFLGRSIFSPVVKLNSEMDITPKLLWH
Briefly: SPR (Biacore T200, immobilized MYOF-C2D); confirmed by BLI (KD =[…]). It counts as binding.

The compound `CCc1nc(-c2ccc(OC)cc2)n(-c2cccc(C(=O)NCCCCc3ccccc3)c2)n1` [YQ456, 3‐(3‐ethyl‐5‐(4‐methoxyphenyl)‐1H‐1,2,4‐triazol‐1‐yl)‐N‐(4‐phenylbutyl)benzamide] had a Kd of 37 nM.

As usually defined, the Kd is the concentration at which binding is half-saturated. High values mean lower affinity, low ones higher affinity.

The record behind these values is PMC7868085, “A potent and selective small molecule inhibitor of myoferlin attenuates colorectal cancer progression” (Clinical and Translational Medicine, 2021).
